In patent US5047242A, “Azadirachtin derivative insecticides” (Native Plant Institute ("NPI"), priority 1987, dated 1991):
In brackets after ≈: the same amount, converted by molar mass. Entries after “also recorded” stand apart in the source; their conditions may differ. Like-named read-outs stand apart in the source and are kept apart here.

Key:
Heliothis virescens [1] = assay: Artificial diet feeding bioassay, mortality and growth inhibition in first-instar larvae; assay type: in vivo, Heliothis virescens (tobacco budworm); details: for EC50 (concentration causing 50% growth inhibition): Table 1, first-instar Heliothis virescens larvae, artificial diet, parentheses = 95% confidence limits
Excerpt: The results of the growth inhibitory and lethal activities of azadirachtin and these 8 derivatives when fed in an artificial diet to Heliothis virescens larvae are shown in Table 1. Similar to the results of Morgan, E. D., in "Natural pesticides from the Neem tree (Azadirachta indica A. Juss), Schmutterer, H., et al., Eds., Proc. First International Neem Conference (Rottach-Egern, 1980), German Agency for Technical Corporation,Eschborn, Germany, 1982, pps. 43-52 (hereinafter "Morgan"), neither deacetylation nor hydrogenation of the carbon-carbon double bond of the dihydrofuran ring moiety of azadirachtin had any significant effect on activity of the compound against H. virescens.
Mortality and growth inhibition in first-instar Heliothis
virescens larvae fed azadirachtin and eight derivatives in an
artificial diet (I. Kubo and J. A. Klocke, In: Plant Resistance to
Insects (P. A. Helin, Ed.), ACS Symposium Series 208, American Chemical
Society, Washington, D.C. (1983), pp. 329-346.).^a
^b LC50 values are the concentrations (ppm) causing 50%
^c EC50 values are the concentrations (ppm) causing 50% growth
^d Numbers in parentheses are the 95% confidence limits determined
using the methods of Litchfield and Wilcoxon, J. Pharmacol. Exp. Ther.
An artificial diet feeding bioassay with neonate larvae of tobacco budworm (Heliothis virescens) and fall armyworm (Spodoptera frugiperda) was used as previously described (Kubo and Klocke, 1983) to detect insecticidal activities in the plant extracts to monitor fractionation, and to determine the potency of the isolated constituents and derivatives. Potency was determined either as the effective concentration (EC50) of added material that is necessary to reduce larval growth to 50% of the control values or as the lethal concentration (LC50) of added material that is necessary to kill 50% of the treated larvae. EC50 and LC50 values were determined from log probit paper and analyzed statistically by the method of Litchfield and Wilcoxon, supra.

Heliothis virescens [2] = assay: Oral injection of fifth-instar larvae, pupal and adult development (non-irradiated compounds); assay type: in vivo; details: for Number Adults / Number Adults Deformed / Number Pupae / Unsuccessful Larvae-Pupae (number) / Unsuccessful Pupae-Adult (number) / Adults (%) / Adults Deformed (%) / Pupae (%) / Unsuccessful Larvae-Pupae (%) / Unsuccessful Pupae-Adult (%): 1.0 microgram injected orally; for Number Adults / Number Adults Deformed / Number Pupae / Unsuccessful Larvae-Pupae (number) / Unsuccessful Pupae-Adult (number): fifth-instar; for Number Adults / Number Adults Deformed / Number Pupae / Unsuccessful Larvae-Pupae (number) / Unsuccessful Pupae-Adult (number) / inhibition of pupation (in words): non-irradiated; for Adults (%) / Adults Deformed (%) / Pupae (%) / Unsuccessful Larvae-Pupae (%) / Unsuccessful Pupae-Adult (%): % of larvae; for inhibition of pupation (in words): 1.0 μg per os
Description: (§1) Individual larvae were injected per os on the first day of the fifth instar with 1.0 μg of either irradiated or non-irradiated compounds dissolved in 1.0 μl of 75% aqueous ethanol.
Table 2: Successful and unsuccessful pupal and adult development of
fifthinstar Heliothis Virescens larvae injected orally with 1.0 microgram
of either azadirachtin, 3deacetylazadirachtin, 22,23dihydroazadirachtin,
or 2',3',22,23tetrahydroazadirachtin.

Heliothis virescens [3] = assay: Relative activity of UV-irradiated compounds in inhibiting pupal development of fifth-instar larvae; assay type: in vivo; details: for Relative activity, inhibition of pupal development: relative to non-irradiated counterpart; for activity retained after 90 h of exposure to UV radiation (in words): 90 h UV
Description: (§2) Azadirachtin, 3-deacetylazadirachtin, 22,23-dihydroazadirachtin, and 2',3',22,23-tetrahydroazadirachtin (1.0 mg/ml absolute ethanol) were placed individually in capped quartz NMR tubes (5×180 mm) and were irradiated with two UV germicidal lights (GE, G30T8, 200-280 nm, 30W) 1.8 m from the source at room temperature for up to 400 h. The controls were identical samples protected from exposure to UV radiation by wrapping with aluminum foil. At selected time intervals, aliquots from both the controls (non-irradiated) and irradiated samples were removed for high-performance liquid chromatography (HPLC) analysis and bioassay (vide infra).
as §1
Table 3: Relative activity of azadirachtin, 3deacetylaza-dirachtin,
22,23dihydroazadirachtin, and 2',3',22,23tetrahydroazadirachtin, all of
which had been exposed for 15, 30, 90, 200, and 400 hours to UV radiation
inhibiting the pupal development of fifthinstar Heliothis virescens
(§3) larvae. Relative activity is defined as the percentage of larvae injected

Heliothis virescens [4] = assay: Relative activity of UV-irradiated compounds in inhibiting adult development of fifth-instar larvae; assay type: in vivo; details: for Relative activity, inhibition of adult development: relative to non-irradiated counterpart; for ability to inhibit larvae from reaching the adult stage after UV (in words): 200 h UV
Description: as §2, §1
Table 4: Relative activity of azadirachtin, 3deacetylaza-dirachtin,
22,23dihydroazadirachtin, 2',3',22,23tetrahydroaza-dirachtin, all of whic
had been exposed for 15, 30, 90, 200, and 400 hours to UV radiation, in
inhibiting the adult development of fifthinstar Heliothis virescens
as §3
relative to the percentage injected with its nonirradiated counterpart

[5] = UV stability in ethanol by reversed phase HPLC; assay type: physicochemical; details: for UV lability (in words): UV irradiation, HPLC
Description: Stability of Azadirachtin derivatives was determined as follows:
as §2
Analytical reversed phase HPLC was performed on a phenyl (5μm) column run isocratically with acetonitrile-water (3:7) (Yamasaki et al.) Peaks were detected at 214 nm. The irradiated samples were compared with their corresponding non-UV-irradiated controls by measuring the height of the peak eluting at the appropriate Rt for each irradiated compound relative to each one's non-irradiated control. Results are expressed as the percent of the initial sample concentration remaining relative to the control. Each time point was done in at least triplicate fashion.

insects [6] = assay: Antifeedant / systemic action; details: in vivo
insects [7] = details: literature; cited from earlier work
insect = details: Kubo & Klocke; cited from earlier work

C/C=C(\C)C(=O)OC1CC(OC(C)=O)C2(C(=O)OC)COC3C2C12COC(O)(C(=O)OC)C2C(C)(C12OC1(C)C1CC2OC2OCCC21O)C3O (stereo not shown) [22,23-dihydroazadirachtin]
EC50 (concentration causing 50% growth inhibition) (Heliothis virescens [1]): 0.08 (0.04-0.15) ppm | Number Adults (Heliothis virescens [2]): 6 Number | Number Adults Deformed (Heliothis virescens [2]): 5 Number | Number Pupae (Heliothis virescens [2]): 47 Number | Unsuccessful Larvae-Pupae (number) (Heliothis virescens [2]): 13 Number | Unsuccessful Pupae-Adult (number) (Heliothis virescens [2]): 4 Number | Adults (%) (Heliothis virescens [2]): 3.4% | Adults Deformed (%) (Heliothis virescens [2]): 2.8% | Pupae (%) (Heliothis virescens [2]): 26.7% | Unsuccessful Larvae-Pupae (%) (Heliothis virescens [2]): 7.4% | Unsuccessful Pupae-Adult (%) (Heliothis virescens [2]): 2.3% | inhibition of pupation (in words) (Heliothis virescens [2]): less effective | Relative activity, inhibition of pupal development (Heliothis virescens [3]; 15 h UV exposure): 113.1% | Relative activity, inhibition of pupal development (Heliothis virescens [3]; 30 h UV exposure): 104.6% | activity retained after 90 h of exposure to UV radiation (in words) (Heliothis virescens [3]): retained full activity | Relative activity, inhibition of pupal development (Heliothis virescens [3]; 90 h UV exposure): 100.0% | ability to inhibit pupation after UV (in words) (Heliothis virescens [3]; 200 h UV): did decline | Relative activity, inhibition of pupal development (Heliothis virescens [3]; 200 h UV exposure): 72.7% | ability to inhibit pupation after UV (in words) (Heliothis virescens [3]; 400 h UV): even greater decline | activity retained after 400 h of exposure to UV radiation (Heliothis virescens [3]; 400 h UV): approximately 50% | Relative activity, inhibition of pupal development (Heliothis virescens [3]; 400 h UV exposure): 49.1% | ability to inhibit pupation after UV (in words) (Heliothis virescens [3]; up to 90 h UV): not appreciably reduced | Relative activity, inhibition of adult development (Heliothis virescens [4]; 15 h UV exposure): 103.5% | Relative activity, inhibition of adult development (Heliothis virescens [4]; 30 h UV exposure): 100.1% | Relative activity, inhibition of adult development (Heliothis virescens [4]; 90 h UV exposure): 103.5% | ability to inhibit larvae from reaching the adult stage after UV (in words) (Heliothis virescens [4]): more so | Relative activity, inhibition of adult development (Heliothis virescens [4]; 200 h UV exposure): 69.0% | Relative activity, inhibition of adult development (Heliothis virescens [4]; 400 h UV exposure): 74.5% | degradation following 400 h of exposure to UV radiation (in words) [5]: none of the three compounds remained in their original state | kinetics of UV degradation (in words) [5]: first-order reaction | UV lability (in words) [5]: UV-labile

C/C=C(\C)C(=O)O[C@H]1C[C@@H](OC(C)=O)[C@@]2(C(=O)OC)CO[C@H]3[C@@H](O)[C@@](C)([C@]45O[C@@]4(C)[C@H]4C[C@@H]5O[C@@H]5OC=C[C@@]54O)[C@H]4[C@]1(CO[C@]4(O)C(=O)OC)[C@@H]32 [azadirachtin]
LC50 (Heliothis virescens [1]; Heliothis virescens, po, read-out: LC50 (concentration causing 50% mortality)): 0.8 µg/mL (≈ 1.11 µM) | EC50 (concentration causing 50% growth inhibition) (Heliothis virescens [1]): 0.07 (0.05-0.10) ppm | Number Adults (Heliothis virescens [2]): 2 Number | Number Adults Deformed (Heliothis virescens [2]): 1 Number | Number Pupae (Heliothis virescens [2]): 10 Number | Unsuccessful Larvae-Pupae (number) (Heliothis virescens [2]): 5 Number | Unsuccessful Pupae-Adult (number) (Heliothis virescens [2]): 0 Number | Adults (%) (Heliothis virescens [2]): 1.3% | Adults Deformed (%) (Heliothis virescens [2]): 0.7% | Pupae (%) (Heliothis virescens [2]): 6.7% | Unsuccessful Larvae-Pupae (%) (Heliothis virescens [2]): 3.4% | Unsuccessful Pupae-Adult (%) (Heliothis virescens [2]): 0% | mortality at 0.001 mg (Heliothis virescens [2]; Heliothis virescens, light or radiation study, po, read-out: % Mortality Prior to Adult Stage): 98.7% | inhibition of pupation (in words) (Heliothis virescens [2]): equally effective | Relative activity, inhibition of pupal development (Heliothis virescens [3]; 15 h UV exposure): 98.6% | Relative activity, inhibition of pupal development (Heliothis virescens [3]; 30 h UV exposure): 98.9% | activity retained after 90 h of exposure to UV radiation (in words) (Heliothis virescens [3]): retained full activity | Relative activity, inhibition of pupal development (Heliothis virescens [3]; 90 h UV exposure): 85.7% | ability to inhibit pupation after UV (in words) (Heliothis virescens [3]; 200 h UV): did decline | Relative activity, inhibition of pupal development (Heliothis virescens [3]; 200 h UV exposure): 74.2% | ability to inhibit pupation after UV (in words) (Heliothis virescens [3]; 400 h UV): even greater decline | activity retained after 400 h of exposure to UV radiation (Heliothis virescens [3]; 400 h UV): approximately 50% | Relative activity, inhibition of pupal development (Heliothis virescens [3]; 400 h UV exposure): 60.0% | ability to inhibit pupation after UV (in words) (Heliothis virescens [3]; up to 90 h UV): not appreciably reduced | Relative activity, inhibition of adult development (Heliothis virescens [4]; 15 h UV exposure): 101.3% | Relative activity, inhibition of adult development (Heliothis virescens [4]; 30 h UV exposure): 101.3% | Relative activity, inhibition of adult development (Heliothis virescens [4]; 90 h UV exposure): 97.3% | ability to inhibit larvae from reaching the adult stage after UV (in words) (Heliothis virescens [4]): declined sligtly | Relative activity, inhibition of adult development (Heliothis virescens [4]; 200 h UV exposure): 89.7% | Relative activity, inhibition of adult development (Heliothis virescens [4]; 400 h UV exposure): 81.1% | degraded after 90 h of exposure to UV radiation ([5]; 90 h UV): more than 80% | degradation following 400 h of exposure to UV radiation (in words) ([5]; 400 h UV): none of the three compounds remained in their original state | T1/2 of UV degradation ([5]; UV 200-280 nm, 1.0 mg/ml ethanol, room temperature): 25 h | UV lability (in words) [5]: UV-labile | kinetics of UV degradation (in words) ([5]; under the conditions used, data not shown): first-order reaction | antifeedant function (in words) (insects [6]): function as antifeedants | ecdysis inhibitory activity (in words) (insects [7]): potent ecdysis inhibitory activity; also recorded: same ecdysis inhibitory activity

C/C=C(\C)C(=O)O[C@@H]1C[C@H](O)[C@]23CO[C@H](C(=O)OC)[C@H]2[C@](C)([C@]24O[C@@]2(C)[C@H]2C[C@@H]4O[C@@H]4OC=C[C@@]42O)[C@H](O)[C@@H]2OC[C@@]1(C(=O)OC)[C@H]23 [deacetylazadirachtinol]
insect growth inhibitor activity, fold less active than azadirachtin (insect): about 2.5 fold | ecdysis inhibitory activity (in words) (insects [7]): same ecdysis inhibitory activity
